Experimental data taken from paper PMC9556824, “Design, synthesis and computational study of new benzofuran hybrids as dual PI3K/VEGFR2 inhibitors targeting cancer” (Scientific Reports, 2022).

Legend:
[1] = test system: Hepatocellular carcinoma (HePG2); test: Antitumor screening using MTT assay; type: cell-based, human; conditions: Homo sapiens; for viability at 1.56 µM: Conc. 1.56 µM; for viability at 1.56 µM / viability at 3.125 µM / viability at 6.25 µM / viability at 12.5 µM / viability at 25 µM / viability at 50 µM / viability at 100 µM: read-out: Average of Relative viability of cells (%); for viability at 3.125 µM: Conc. 3.125 µM; for viability at 6.25 µM: Conc. 6.25 µM; for viability at 12.5 µM: Conc. 12.5 µM; for viability at 25 µM: Conc. 25 µM; for viability at 50 µM: Conc. 50 µM; for viability at 100 µM: Conc. 100 µM; for IC50: mean ± SD, n = 3, read-out: In-vitro cytotoxicity IC50 (µM) HePG2
Source text: (§2) Hepatocellular carcinoma (HePG2), mammary gland breast cancer (MCF-7), epithelioid carcinoma cervix cancer (Hela), and human prostate cancer were included on the panel (PC3). […] The cell lines were obtained from the American Type Culture Collection (ATCC) through VACSERA, a Cairo-based holding firm for biological goods and vaccines.
(§3) The panel consisted of hepatocellular carcinoma (HePG2), mammary gland breast cancer (MCF-7), epithelioid carcinoma cervix cancer (Hela) and human prostate cancer (PC3). Human lung fibroblast (WI38) was used to assay the cytotoxicity effect on normal cell. The cell lines were obtained from ATCC via Holding company for biological products and vaccines (VACSERA), Cairo, Egypt. The cytotoxic activity was defined as the concentration of the compound that causes 50% growth inhibition compared with the growth of untreated cells.

[2] = In vitro cytotoxicity against human normal cell line (MTT); type: cell-based; conditions: human, WI38, read-out: Average of Relative viability of cells (%); for viability at 3.125 µM: WI38 human lung fibroblast cells (normal cell line), Conc. 3.125 µM; for viability at 1.56 µM / viability at 6.25 µM / viability at 12.5 µM / viability at 25 µM / viability at 50 µM / viability at 100 µM: WI38 normal lung fibroblast cells; for viability at 1.56 µM: Conc. 1.56 µM; for viability at 6.25 µM: Conc. 6.25 µM; for viability at 12.5 µM: Conc. 12.5 µM; for viability at 25 µM: Conc. 25 µM; for viability at 50 µM: Conc. 50 µM; for viability at 100 µM: Conc. 100 µM
Source text: (§1) The anticancer agent's selectivity for cancer cells is a critical consideration for any researcher, as it can decrease the molecule's adverse effects on normal human cells.

[3] = test system: human lung fibroblast (WI38); test: as above; type: cell-based; conditions: Homo sapiens, WI-38, human normal cell line WI38; mean ± SD, n = 3
Source text: as §1

[4] = test system: HePG2, MCF-7, Hela, PC3 cell lines; test: Antitumor screening using MTT assay, statements across several cell lines; type: cell-based, human; conditions: Homo sapiens; Hela and PC3; one range for 9 and 10 together; read-out: IC50 values range against Hela and PC3 cell line
Source text: as §2, §3

[5] = test system: mammary gland breast cancer (MCF-7); test: Antitumor screening using MTT assay; conditions: Homo sapiens; for viability at 1.56 µM / viability at 3.125 µM / viability at 6.25 µM / viability at 12.5 µM / viability at 25 µM / viability at 50 µM / viability at 100 µM: MCF7, read-out: Average of Relative viability of cells (%); for IC50: MCF7, read-out: In-vitro cytotoxicity IC50 (µM) MCF-7
Source text: as §2, §3

[6] = test system: epithelioid carcinoma cervix cancer (Hela); test: Antitumor screening using MTT assay; conditions: Homo sapiens, HeLa; for viability at 1.56 µM / viability at 3.125 µM / viability at 6.25 µM / viability at 12.5 µM / viability at 25 µM / viability at 50 µM / viability at 100 µM: read-out: Average of Relative viability of cells (%); for IC50: read-out: In-vitro cytotoxicity IC50 (µM) Hela
Source text: as §2, §3

[7] = test system: human prostate cancer (PC3); test: Antitumor screening using MTT assay; conditions: Homo sapiens; for viability at 1.56 µM / viability at 3.125 µM / viability at 6.25 µM / viability at 12.5 µM / viability at 25 µM / viability at 50 µM / viability at 100 µM: read-out: Average of Relative viability of cells (%); for IC50: read-out: In-vitro cytotoxicity IC50 (µM) PC3

## COc1ccc(/C=N/N=C(\C)c2cc3ccccc3o2)cc1OC [Compound 9, (E)-1-[1-(benzofuran-2-yl)ethylidene]-2-((E)-3,4-dimethoxybenzylidene)hydrazine]
[1]
  viability at 1.56 µM: 100%
  viability at 3.125 µM: 94.4%
  viability at 6.25 µM: 78.2%
  viability at 12.5 µM: 60.5%
  viability at 25 µM: 49.6%
  viability at 50 µM: 36.8%
  viability at 100 µM: 26.2%
  IC50: 26.4 ± 2.1 µM
[2]
  viability at 3.125 µM: 100%
  viability at 1.56 µM: 100%
  viability at 6.25 µM: 99.7%
  viability at 12.5 µM: 85.2%
  viability at 25 µM: 74.5%
  viability at 50 µM: 60.6%
  viability at 100 µM: 47.9%
[3]
  IC50: 82.3 ± 4.3 µM
[4]
  IC50: 13.8 to 32.1 µM
other
  melting point: 130 to 132 °C
[5]
  viability at 1.56 µM: 100%
  viability at 3.125 µM: 96%
  viability at 6.25 µM: 79.5%
  viability at 12.5 µM: 64.2%
  viability at 25 µM: 50.6%
  viability at 50 µM: 38.2%
  viability at 100 µM: 25.3%
  IC50: 28.1 ± 2.3 µM
[6]
  viability at 1.56 µM: 100%
  viability at 3.125 µM: 92%
  viability at 6.25 µM: 73.2%
  viability at 12.5 µM: 50.4%
  viability at 25 µM: 37.1%
  viability at 50 µM: 28.2%
  viability at 100 µM: 20.3%
  IC50: 17 ± 1.4 µM
[7]
  viability at 1.56 µM: 100%
  viability at 3.125 µM: 96.1%
  viability at 6.25 µM: 75.8%
  viability at 12.5 µM: 60.2%
  viability at 25 µM: 52.6%
  viability at 50 µM: 44.8%
  viability at 100 µM: 31.2%
  IC50: 32.1 ± 2.2 µM

## COc1ccccc1/C=N/N=C(\C)c1cc2ccccc2o1 [Compound 10, (E)-1-[1-(benzofuran-2-yl)ethylidene]-2-((E)-2-methoxybenzylidene)hydrazine]
[1]
  viability at 1.56 µM: 100%
  viability at 3.125 µM: 100%
  viability at 6.25 µM: 91.9%
  viability at 12.5 µM: 72.7%
  viability at 25 µM: 63.1%
  viability at 50 µM: 50.2%
  viability at 100 µM: 38.1%
  IC50: 51 ± 3 µM
[2]
  viability at 3.125 µM: 100%
  viability at 1.56 µM: 100%
  viability at 6.25 µM: 100%
  viability at 12.5 µM: 93.6%
  viability at 25 µM: 71.7%
  viability at 50 µM: 54.8%
  viability at 100 µM: 43.3%
[3]
  IC50: 67.7 ± 3.4 µM
[4]
  IC50: 13.8 to 32.1 µM
other
  melting point: 154 to 156 °C
[5]
  viability at 1.56 µM: 100%
  viability at 3.125 µM: 100%
  viability at 6.25 µM: 94.7%
  viability at 12.5 µM: 79.3%
  viability at 25 µM: 65.2%
  viability at 50 µM: 58%
  viability at 100 µM: 40.4%
  IC50: 62.8 ± 3.3 µM
[6]
  viability at 1.56 µM: 100%
  viability at 3.125 µM: 85.9%
  viability at 6.25 µM: 63.5%
  viability at 12.5 µM: 48.1%
  viability at 25 µM: 33.7%
  viability at 50 µM: 25.8%
  viability at 100 µM: 17%
  IC50: 13.8 ± 1 µM
[7]
  viability at 1.56 µM: 100%
  viability at 3.125 µM: 96.3%
  viability at 6.25 µM: 78.2%
  viability at 12.5 µM: 59.1%
  viability at 25 µM: 46.8%
  viability at 50 µM: 37%
  viability at 100 µM: 23.5%
  IC50: 24.8 ± 1.9 µM
